Results from US20140057961A1, “SIN3B COMPLEX INHIBITION AND USE THEREOF IN THE PREVENTION OF PRO-ONCOGENIC INFLAMMATION AND CANCER” (New York University, priority 2012, published 2014).

Assays:
[1] = system: Sin3B expression; details: van Oevelen, et al. (2008) Mol. Cell. 32:359-370; cited from earlier work
[2] = system: IL-6 expression in BxPc3 human PDAC cells; test: Quantitative RT-PCR for IL-6 mRNA expression in BxPc3 pancreatic cancer cells; assay type: cell-based; details: BxPc3 cells treated 48 hours with 0.2 μM or 1 μM, relative to DMSO; FIG. 5
Experimental: (§1) Quantitative PCR for IL-1α and IL-6 mRNA expression in BxPc3 pancreatic cancer cell lines. BxPc3 has been treated 48 hours with vehicle DMSO, 0.2 μM (TSA 0.2) or 1 μM (TSA 1) of Trichostatin A. Sin3B and IL-1α mRNA expressions are relative to the expressions in DMSO (*p<0.05).
(§2) BxPc3 human pancreatic cancer cell lines are known in the art and available from American Type Culture Collection (ATCC, Manassas, Va.). Cells were cultured in RPMI, 10% FBS, Sodium Pyruvate, HEPES and Penicillin/[…]. The cultures were maintained in 5% CO2 at 37° C.
Extraction of total RNA from Pancreas and PDECs was performed using RNEASY mini kit (QIAGEN). For the pancreas, a piece was snap-frozen, ground, and the frozen powder was added to the RNEASY lysis buffer. Reverse transcription was done using Moloney murine leukemia virus polymerase and oligo(dT) primers. RT-PCR analyses were done using Tag DNA polymerase (5 Prime) and dNTP (Promega). Quantitative RT-PCR analyses were done using the SYBR Green method and the samples were run on the BIO-RAD I cycler MYIQ. Expression levels were normalized to GAPDH. Results were reported as relative to the abundance of mSin3B^+/− or mSin3^B+/− KRas^G12D transcripts. […]

[3] = system: IL-1α expression in BxPc3 human PDAC cells; test: Quantitative RT-PCR for IL-1α mRNA expression in BxPc3 pancreatic cancer cells; assay type: cell-based; details: BxPc3 cells treated 48 hours with 0.2 μM or 1 μM, relative to DMSO; FIG. 5, p<0.05
Experimental: Quantitative PCR for Sin3B (*p<0.005) and IL-1α (*p<0.05) mRNA expression in BxPc3 pancreatic cancer cell lines. BxPc3 were infected with an empty vector or a shRNA against Sin3B (shSin3B). ShSin3B mRNA expressions are relative to the empty vector expression.
as §1, §2
DNA sequences encoding shRNAs for Sin3B (shSin3B) were selected and cloned into the PLKO retroviral vector (Open Biosystem). BxPc3 cells were infected with shSin3B or PLKO for 3 days and selected in puromycin for 5 days. The level of Sin3B knockdown by shSin3B was determined by quantitative RT-PCR.
Extraction of total RNA from Pancreas and PDECs was performed using RNEASY mini kit (QIAGEN). […] Quantitative RT-PCR analyses were done using the SYBR Green method and the samples were run on the BIO-RAD I cycler MYIQ. […]

Compound: GCAAAGCGGUCCCUGUUUAUU (listed as RNA, chemistry not given here) [SEQ ID NO:6]
- Sin3B expression [1]: inhibit Sin3B expression

Compound: CC(/C=C/C(=O)NO)=C\[C@@H](C)C(=O)c1ccc(N(C)C)cc1 [trichostatin A]
- IL-6 expression after TSA treatment [2]: not significantly affected
- IL-1α expression after TSA treatment [3]: specific and dose-dependent down-regulation

Compound: GGCAAUGGGUCGUGCGAGAUU (chemistry not given here) [SEQ ID NO:7]
- Sin3B expression [1]: inhibit Sin3B expression
